We go through 8 compounds from PubChem BioAssay (NCI).

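Compound exposure: 48 hours, 5 concentrations, 96-well plates. At the GI50, growth is halved. At the TGI there is no net growth.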

Test systems include OVCAR-5 ovarian; HT29 colon; SK-MEL-5 melanoma; TK-10 renal; RXF 393 renal; NCI-H226 lung; BT-549 breast; HS 578T breast; NCI-H460 lung; UACC-257 melanoma.
What all share (test): inhibition of tumour cell growth, NCI panel, 48 h

Regarding `c1cc2c(cn1)Nc1ccncc1S2`, the GI50 is 25.2 µM with OVCAR-5 ovarian; 58 µM in the test with HT29 colon; 36.3 µM with SK-MEL-5 melanoma; 42.7 µM with TK-10 renal; 15.6 µM in the test on RXF 393 renal; 49.2 µM in the test with NCI-H226 lung. Besides, the GI50 is 59.5 µM in the test with BT-549 breast, 29.6 µM with HS 578T breast, 27.8 µM in the test with NCI-H460 lung and 71.5 µM in the test on UACC-257 melanoma. Also, the TGI with OVCAR-5 ovarian was over 100 µM; in the test on HT29 colon, over 100 µM; with SK-MEL-5 melanoma, over 100 µM; in the test with TK-10 renal it was over 100 µM; in the test on RXF 393 renal it was 42.3 µM; with NCI-H226 lung, over 100 µM. Also, the TGI in the test with BT-549 breast, in the test on HS 578T breast, in the test with NCI-H460 lung and in the test with UACC-257 melanoma was over 100 µM each time.
In the case of `O=c1[nH]cnc2c1nnn2CCCCCCCCCCCCn1nnc2c(=O)[nH]cnc21`, the TGI with OVCAR-5 ovarian was over 100 µM; in the test on HT29 colon, over 100 µM; with SK-MEL-5 melanoma it was over 100 µM; with TK-10 renal, 50.7 µM; with RXF 393 renal it was over 50.5 µM; in the test with NCI-H226 lung, 63.5 µM. The TGI with BT-549 breast was over 100 µM; with HS 578T breast, 60.7 µM; in the test on NCI-H460 lung, over 100 µM; in the test with UACC-257 melanoma, over 100 µM.
For the compound `COc1ccc(N(C)c2nc(N)nc3sc4c(c23)CCCC4)cc1`, the GI50 with OVCAR-5 ovarian is under 0.0125 µM; with HT29 colon, under 0.01 µM; in the test on SK-MEL-5 melanoma, under 0.01 µM; in the test on TK-10 renal, under 0.0278 µM; with RXF 393 renal, under 0.01 µM; in the test with NCI-H226 lung, 0.616 µM. Moreover, the GI50 in the test with BT-549 breast was 0.0123 µM; with HS 578T breast, under 0.01 µM; in the test with NCI-H460 lung, under 0.01 µM; with UACC-257 melanoma, 8.12 µM. The TGI stood at 19.5 µM in the test with OVCAR-5 ovarian; 12.1 µM with HT29 colon; 0.505 µM in the test with SK-MEL-5 melanoma; 22 µM in the test with TK-10 renal; 20.7 µM with RXF 393 renal; 22.3 µM in the test with NCI-H226 lung. Further, the TGI in the test with BT-549 breast was 10.5 µM; in the test on HS 578T breast it was 10.3 µM; in the test with NCI-H460 lung, 4.19 µM; in the test on UACC-257 melanoma it was 26.3 µM.
For `CCOC(=O)c1cnc2c(C)cccc2c1Nc1ccc(C(C)=O)cc1`, the GI50 in the test with OVCAR-5 ovarian is 34.6 µM; with HT29 colon, 19.2 µM; in the test on SK-MEL-5 melanoma it was 3.75 µM; in the test with TK-10 renal, 32.8 µM; with RXF 393 renal, 4.23 µM; with NCI-H226 lung, 7.01 µM. In addition, the GI50 is 16.1 µM with BT-549 breast, 15.4 µM in the test on HS 578T breast, 59.3 µM in the test on NCI-H460 lung and 79.9 µM in the test with UACC-257 melanoma. The TGI in the test with OVCAR-5 ovarian was over 100 µM; in the test on HT29 colon, over 100 µM; in the test on SK-MEL-5 melanoma, 19.7 µM; in the test on TK-10 renal it was 82.9 µM; in the test on RXF 393 renal it was 63.8 µM; with NCI-H226 lung, over 100 µM. For the same compound, the TGI with BT-549 breast was 59.3 µM; in the test on HS 578T breast, 58.4 µM; in the test on NCI-H460 lung it was over 100 µM; in the test with UACC-257 melanoma, over 100 µM.
On to `O=S(=O)(c1cnccc1N1CCN(CCO)CC1)N1CCCC1`, for which the TGI in the test on OVCAR-5 ovarian, with HT29 colon, in the test with SK-MEL-5 melanoma, in the test with TK-10 renal, in the test with RXF 393 renal and with NCI-H226 lung was over 100 µM throughout. Further, the TGI in the test on BT-549 breast, in the test with HS 578T breast, in the test with NCI-H460 lung and in the test on UACC-257 melanoma was over 100 µM throughout.
`COc1cc2cc(Oc3ccc(NC(=O)Nc4ccc(Cl)c(Cl)c4)cc3)c(C)nc2cc1OC`: the GI50 in the test with OVCAR-5 ovarian was 10.1 µM; with HT29 colon, 2.34 µM; in the test on SK-MEL-5 melanoma it was 2.58 µM; with TK-10 renal, 3.46 µM; with RXF 393 renal, 4.28 µM; in the test on NCI-H226 lung, 3.12 µM. The GI50 was 2.4 µM with BT-549 breast, 3.54 µM in the test on HS 578T breast, 2.46 µM in the test on NCI-H460 lung and 2.31 µM in the test with UACC-257 melanoma. Besides, the TGI in the test on OVCAR-5 ovarian came to 34.3 µM; in the test with HT29 colon it was 4.89 µM; in the test on SK-MEL-5 melanoma, 8.09 µM; in the test on TK-10 renal it was 9.18 µM; in the test with RXF 393 renal it was 16.7 µM; in the test with NCI-H226 lung, 8.68 µM. The TGI with BT-549 breast came out at 11.7 µM; with HS 578T breast, 9.68 µM; in the test on NCI-H460 lung, 10.1 µM; with UACC-257 melanoma, 6.28 µM.
As for `CC(=O)c1c(C)[nH]c(-c2nc3ccc(N4CCN(C)CC4)cc3[nH]2)c1-c1ccccc1`, the GI50 with OVCAR-5 ovarian is 1.12 µM; in the test with HT29 colon, 0.437 µM; with SK-MEL-5 melanoma it was 1.35 µM; with TK-10 renal, 0.604 µM; in the test on RXF 393 renal it was 2.84 µM; with NCI-H226 lung it was 1.93 µM. Besides, the GI50 with BT-549 breast is 8.81 µM; in the test with HS 578T breast it was 0.392 µM; in the test on NCI-H460 lung, 4.24 µM; with UACC-257 melanoma, 1.46 µM. Also, the TGI in the test with OVCAR-5 ovarian is 22.9 µM; in the test on HT29 colon it was 18.5 µM; in the test with SK-MEL-5 melanoma, 10.4 µM; in the test with TK-10 renal it was 27.2 µM; in the test with RXF 393 renal, 16.1 µM; in the test with NCI-H226 lung it was 49.5 µM. The TGI in the test on BT-549 breast was determined as 29.8 µM; in the test on HS 578T breast, 17.2 µM; with NCI-H460 lung it was 31.4 µM; in the test with UACC-257 melanoma it was 17.9 µM.
For `CO[C@H]1C[C@@H]2CC[C@@H](C)[C@@](O)(O2)C(=O)C(=O)N2CCCC[C@H]2C(=O)O[C@H]([C@H](C)C[C@@H]2CC[C@@H](OCCO)[C@H](OC)C2)CC(=O)[C@H](C)C=C(C)[C@@H](O)[C@@H](OC)C(=O)[C@H](C)C[C@H](C)/C=C/C=C/C=C1C`, the GI50 is under 0.01 µM with OVCAR-5 ovarian; 2.55 µM with HT29 colon; 1.75 µM in the test with SK-MEL-5 melanoma; under 0.01 µM in the test on TK-10 renal; under 0.01 µM in the test on RXF 393 renal; under 0.01 µM in the test on BT-549 breast. The values for the GI50 in the test with HS 578T breast and in the test with UACC-257 melanoma were under 0.01 µM and 5.88 µM, respectively. Moreover, the TGI worked out at 20.3 µM in the test on OVCAR-5 ovarian; 21.1 µM with HT29 colon; 18.1 µM with SK-MEL-5 melanoma; 19.1 µM with TK-10 renal; 23.5 µM with NCI-H226 lung; 19.4 µM with NCI-H460 lung. The same compound came in with a TGI with UACC-257 melanoma of 22.2 µM.
